Entries after “also recorded” stand apart in the source; their conditions may differ.
Experiments:
[1] = tested on: Nanog, Pou5f1 (Oct4), Sox2; test: Immunostaining and qPCR for canonical pluripotency markers in ESCs; format: cell-based, mouse; conditions: upon APH treatment
Method: RNA was extracted using RNeasy mini kit (QIAGEN), quantified by NanoDrop spectrophotometer and cDNA was prepared from 2 μg total DNA-depleted RNA using SuperScript™ III reverse transcriptase kit (Invitrogen cat #18080-093) following manufacturer's instructions. qPCR assay performed based on standard protocol using […] SsoFast™ EvaGreen® Supermix or later 1× LightCycler 480 SYBR Green I Master (Roche, 04707516001), 0.5 μM primer mix and 5 ng of cDNA. GAPDH was used as internal control to normalise the qPCR data following ΔΔCt method, 10 μM primer mix and a total amount of cDNA corresponding to 5 ng of starting RNA for each reaction. […] Then, cells were incubated with primary antibody at 4° C. overnight, followed by washes and incubation with secondary antibody for an hour at room temperature. Next samples were mounted and images were acquired with wide field florescent microscope. Antibodies used in this study were Anti Oct-3/4 (Santa Cruz sc-5279), Anti Nanog (Abcam ab80892) and Plet-1 antibody (Nordic MUbio MUB1512P) and), Anti-GFP (Abcam, ab5450). Acquired figures were analyzed with ImageJ software.

pZscan4-Emerald ESCs [2] = test: FACS analysis of Zscan4-Emerald ESCs (Emerald-GFP positive cells); format: cell-based, mouse; conditions: for elevated expression of 2C-like specific genes (Zscan4, MERVL) upon APH and HU treatment: inhibitor added under replication stress, flow cytometry and immunoblot
Method: (§1) All treatments including APH, HU, UV, ATRi, ATMi and Chk1i were added in to fresh ESC medium and the cells were kept in 37° C. and 3% 02 tension for overnight (16-17 hrs) unless mentioned in each particular result section. APH was used at various concentrations ranging from 0.3 uM to 6 uM that is mentioned in each experiment in order to induce mild to acute replication stress response. Similarly, HU was used at 0.1 mM-3 mM. ATMi (KU-55933) and ATRi (VE 822) were used at the concentration of 10 uM and 1 uM respectively. Moreover, Chk1i (UCN-01) at the concentration of 100 nM was used. UV radiation was performed at the dosage ranging from 2 to 10 J/m2. For induction of ETAA1-AAD expression, Dox was used at the concentration of 1 μg/mL for 48 hrs.
(§2) ESCs were fixed and permeabilized using Cytoperm/Cytofix kit (BD Biosciences), and subsequently stained for one hour at room temperature with Alexa Fluor® 647 anti-H2AX-Phosphorylated (Ser139) antibody (Biolegend) or P-CHK1-PE conjugated antibody (cell signaling 12268). Cells were washed and acquired on a FACS Calibur instrument or Attune NxT (Thermo Fisher Scientific). For Emerald-GFP acquisition, cells were trypsinized, collected and subsequently acquired without fixation. Cell cycle profiles were acquired after incubation with DAPI (4′,6-diamidino-2-phenylindole) overnight. For Caspase3 FACS analysis after fixation and permeabilization, Cleaved Caspase3 antibody were used for one hr at RT followed by washes and one hr incubation in donkey anti rabbit secondary antibody. […]

pZscan4-Emerald ESCs [3] = test: Cell cycle analysis of ESCs; format: cell-based, mouse; conditions: APH 0.3 μM and 6 μM
Description: as §2

E14 mouse ESCs = test: Drop-seq single cell transcriptional profiling of E14 ESCs; format: cell-based
Method: ESCs from CNTL, APH (6 μM) and APH-ATRi experimental conditions were resuspended in PBS-BSA and processed with a microfluidic device according to the DropSeq Laboratory Protocol V3.1 from McCarroll's Lab website [http://mccarrolllab.com/dropseq/l]. For each condition, 3 distinct aliquots of collected emulsion, each containing 4000 beads underwent reverse transcription (RT) and fragment library preparation using Illumina Nextera XT Library Prep Kit. A distinct barcode was used for each library to allow subsequent demultiplexing of sequencing reads. mRNA sequencing was performed using an Illumina HiSeq2000 instrument, library fragments were sequenced at 50 base pairs (bp) in PE mode. Sequencing reads were aligned to UCSC Mouse Reference Genome version mm10 using STAR (version 2.5.3a), and processed according to DropSeq Alignment Cookbook V1.2 to generate a digital expression matrix of STAMPs (cells) for each experimental condition, which was then furtherly analyzed in the RStudio environment (R version 3.3.3) using Seurat package V2.0 from Satija Lab [http://satijalab.org/seurat/]. Seven-hundred most expressed cells were selected in each condition; genes expressed in less than 3 cells and cells expressing less than 200 genes were pruned from the dataset. Data from CNTL and APH conditions (1399 cells) or CNTL, APH and APH-ATRi conditions (2096 cells) were merged to generate two datasets, which were log normalised and scaled. Expression mean and variance to mean ratio (Log VMR>0.5) were used to estimate data dispersion and select variable genes across the dataset. Respectively 2614 and 2768 genes (in the 2-conditions and 3-conditions datasets) were used in principal component analysis (PCA) to identify the appropriate number of components to include in data modeling. Top 15 components were selected to explain dataset complexity. A shared nearest neighbor (SNN) graph and smart local moving algorithm was used to perform cells clustering; t-SNE (t-stochastic neighbour embedding) analysis was used to reduce (PCA) dimensionality and generate plots of cells distribution.

[4] = tested on: 2C-like genes (Zscan4, MuERV-L/MERVL, Dux) in ESCs (E14, R1); test: qPCR for 2C-like specific genes in ESCs; format: cell-based, mouse
Method: as §1
RNA was extracted using RNeasy mini kit (QIAGEN), quantified by NanoDrop spectrophotometer and cDNA was prepared from 2 μg total DNA-depleted RNA using SuperScript™ III reverse transcriptase kit (Invitrogen cat #18080-093) following manufacturer's instructions. qPCR assay performed based on standard protocol using 10× SsoFast™ EvaGreen® Supermix or later 1× LightCycler 480 SYBR Green I Master (Roche, 04707516001), 0.5 μM primer mix and 5 ng of cDNA. GAPDH was used as internal control to normalise the qPCR data following ΔΔCt method, 10 μM primer mix and a total amount of cDNA corresponding to 5 ng of starting RNA for each reaction.

`C[C@@]1(CO)[C@H](O)CC[C@@]2(C)[C@H]1CC[C@H]1C[C@@H]3C[C@@]12CC[C@]3(O)CO` [APH, aphidicolin] was tested, and the “Nanog, Pou5f1 (Oct4) protein in Zscan4 positive cells (immunostaining)” value [1] was “mild downregulation”, the “expression of pluripotency related genes at the transcriptional level” value ([1]; Sox2, Nanog, Pou5f1, Rex1) was “no significant alterations” and the “number of Emerald-GFP positive (Em+) ESCs” value (pZscan4-Emerald ESCs [2]; RS inducing agents, dose-dependent, qPCR and FACS) was “significant increase”. The “G2/M population in culture” value (pZscan4-Emerald ESCs [3]) was “neither at low (0.3 μM) nor at high (6 μM) concentrations could increase G2/M population”, the “small cell population (cluster 4, 2C-like) in single cell profiling” value (E14 mouse ESCs; E14 ESCs in LIF plus 2i, APH 6 μM) was “significantly increased” and the “expression of key 2C-like genes in DUX KO ESCs” value ([4]; APH treatment) was “could not induce”. The “main 2C-like genes, qPCR validation of profiling” value ([4]; APH treatment) was “significant upregulation”, the “expression of 2C-like genes in ATR Seckel ESCs” value ([4]; APH treatment, unlike normal wild type ESC) was “milder increase; also recorded: mild increase” and the “expression of Zscan4 and MuERV-L (QPCR and FACS)” value ([4]; ESC lines E14 and R1, time and dosage-dependent) was “significantly upregulated”.

`CNCc1ccc(-c2cc(-c3nc(-c4ccc(S(=O)(=O)C(C)C)cc4)cnc3N)on2)cc1` [VE 822] was tested, and the “elevated expression of 2C-like specific genes (Zscan4, MERVL) upon APH and HU treatment” value (pZscan4-Emerald ESCs [2]) was “robustly revert”, the “elevated expression of 2C-like specific genes (Zscan4, MERVL) upon APH and HU treatment” value (pZscan4-Emerald ESCs [2]; listed as ATR inhibitor) was “robustly suppress” and the “number of Zscan4-Emerald positive cells” value (pZscan4-Emerald ESCs [2]; normal culture condition, ATRi 1 uM, ATMi 10 uM) was “markedly reduce; also recorded: marked reduction”. For the same compound, the “number of APH-induced 2C-like gene expressing cells (Zscan4d+, Gm8300+)” value (E14 mouse ESCs; APH plus ATRi) was “marked reduction” and the “number of RS-induced cells in the newly emerging cluster” value (E14 mouse ESCs; APH plus ATRi) was “significantly reduced”.

Source: patent US20200131473A1, “METHOD OF GENERATING 2 CELL-LIKE STEM CELLS” (IFOM FONDAZIONE ISTITUTO FIRC DI ONCOLOGIA MOLECOLARE, priority 2017, published 2020)
